Results taken from BigSolDB 2.1.

Cc1ccc([N+](=O)[O-])c(C(=O)O)c1
Conditions | solubility (mole fraction)
in isobutanol, 293.75 K | 0.113
in isobutanol, 299.15 K | 0.133
in isobutanol, 305.75 K | 0.153
in isobutanol, 311.15 K | 0.173
in isobutanol, 317.55 K | 0.193
in isobutanol, 322.95 K | 0.209
in isobutanol, 328.15 K | 0.227
in isobutanol, 333.65 K | 0.243
in n-butanol, 290.65 K | 0.167
in n-butanol, 292.15 K | 0.172
in n-butanol, 294.15 K | 0.183
in n-butanol, 297.75 K | 0.199
in n-butanol, 302.85 K | 0.218
in n-butanol, 307.15 K | 0.237
in n-butanol, 311.65 K | 0.256
in n-butanol, 315.15 K | 0.275
in n-butanol, 319.75 K | 0.295
in n-butanol, 323.85 K | 0.316
in n-butanol, 328.15 K | 0.338
in sec-butanol, 290.15 K | 0.185
in sec-butanol, 292.45 K | 0.199
in sec-butanol, 297.65 K | 0.225
in sec-butanol, 303.15 K | 0.253
in sec-butanol, 309.95 K | 0.28
in sec-butanol, 315.35 K | 0.305
in sec-butanol, 321.15 K | 0.329
in sec-butanol, 326.15 K | 0.352
in sec-butanol, 330.55 K | 0.372
in tert-butanol, 301.55 K | 0.255
in tert-butanol, 305.15 K | 0.274
in tert-butanol, 309.85 K | 0.295
in tert-butanol, 314.45 K | 0.318
in tert-butanol, 318.15 K | 0.341
in tert-butanol, 322.75 K | 0.366
in tert-butanol, 327.35 K | 0.392
in tert-butanol, 332.05 K | 0.418
in tert-butanol, 336.55 K | 0.445
in tert-butanol, 339.55 K | 0.473

Cc1cc(C(=O)O)ccc1[N+](=O)[O-]
Conditions | solubility (mole fraction)
in isobutanol, 306.95 K | 0.009
in isobutanol, 309.55 K | 0.0105
in isobutanol, 315.75 K | 0.0132
in isobutanol, 319.55 K | 0.0158
in isobutanol, 323.85 K | 0.0192
in isobutanol, 328.95 K | 0.0235
in isobutanol, 333.95 K | 0.0283
in isobutanol, 337.95 K | 0.0332
in isobutanol, 342.15 K | 0.0391
in isobutanol, 346.65 K | 0.0457
in n-butanol, 305.15 K | 0.013
in n-butanol, 309.55 K | 0.0153
in n-butanol, 314.95 K | 0.0177
in n-butanol, 318.35 K | 0.0201
in n-butanol, 321.35 K | 0.0228
in n-butanol, 324.35 K | 0.026
in n-butanol, 327.95 K | 0.03
in n-butanol, 332.05 K | 0.0349
in n-butanol, 336.75 K | 0.0405
in n-butanol, 341.25 K | 0.047
in n-butanol, 345.35 K | 0.0546
in sec-butanol, 304.55 K | 0.0142
in sec-butanol, 307.65 K | 0.0166
in sec-butanol, 311.55 K | 0.0199
in sec-butanol, 316.25 K | 0.0243
in sec-butanol, 321.35 K | 0.0297
in sec-butanol, 326.15 K | 0.0359
in sec-butanol, 331.15 K | 0.0428
in sec-butanol, 335.25 K | 0.05
in sec-butanol, 339.25 K | 0.0578
in sec-butanol, 343.55 K | 0.0667
in tert-butanol, 304.35 K | 0.0193
in tert-butanol, 306.95 K | 0.0229
in tert-butanol, 310.15 K | 0.0271
in tert-butanol, 314.95 K | 0.0321
in tert-butanol, 317.95 K | 0.0372
in tert-butanol, 321.65 K | 0.043
in tert-butanol, 325.85 K | 0.0493
in tert-butanol, 329.45 K | 0.0556
in tert-butanol, 333.05 K | 0.0627
in tert-butanol, 336.35 K | 0.0703
in tert-butanol, 339.65 K | 0.0791
in tert-butanol, 343.65 K | 0.0878
in tert-butanol, 345.25 K | 0.0915

Cc1cccc(C(=O)O)c1[N+](=O)[O-]
Conditions | solubility (mole fraction)
in isobutanol, 297.15 K | 0.0102
in isobutanol, 300.65 K | 0.0119
in isobutanol, 303.45 K | 0.0138
in isobutanol, 306.55 K | 0.0161
in isobutanol, 311.15 K | 0.0193
in isobutanol, 315.05 K | 0.0227
in isobutanol, 317.85 K | 0.0268
in isobutanol, 322.15 K | 0.0314
in isobutanol, 326.25 K | 0.0367
in isobutanol, 330.35 K | 0.0425
in isobutanol, 333.45 K | 0.0486
in isobutanol, 337.15 K | 0.0558
in n-butanol, 300.75 K | 0.0177
in n-butanol, 304.15 K | 0.0199
in n-butanol, 307.55 K | 0.0228
in n-butanol, 312.55 K | 0.0264
in n-butanol, 316.15 K | 0.0304
in n-butanol, 319.85 K | 0.0351
in n-butanol, 324.15 K | 0.0406
in n-butanol, 328.25 K | 0.0466
in n-butanol, 332.25 K | 0.0529
in n-butanol, 335.95 K | 0.0597
in n-butanol, 339.95 K | 0.0676
in n-butanol, 343.45 K | 0.0742
in sec-butanol, 305.05 K | 0.024
in sec-butanol, 307.65 K | 0.0272
in sec-butanol, 311.15 K | 0.0314
in sec-butanol, 315.25 K | 0.0373
in sec-butanol, 319.85 K | 0.0447
in sec-butanol, 323.95 K | 0.053
in sec-butanol, 328.85 K | 0.0622
in sec-butanol, 333.35 K | 0.0718
in sec-butanol, 337.65 K | 0.0817
in sec-butanol, 342.25 K | 0.0921
in sec-butanol, 346.25 K | 0.102
in tert-butanol, 301.35 K | 0.0307
in tert-butanol, 304.05 K | 0.0328
in tert-butanol, 306.25 K | 0.0366
in tert-butanol, 310.05 K | 0.0442
in tert-butanol, 314.75 K | 0.0531
in tert-butanol, 318.95 K | 0.0619
in tert-butanol, 323.05 K | 0.0711
in tert-butanol, 327.35 K | 0.0802
in tert-butanol, 331.45 K | 0.0898
in tert-butanol, 335.95 K | 0.0999
in tert-butanol, 340.65 K | 0.111
